Assay results taken from patent publication US11344488B2 (TAKASAGO INTERNATIONAL CORPORATION, priority 2017, dated 2022).

Tests used:
human TRPM8 = target: T1, human TRPM8 (Homo sapiens, UniProt Q7Z2W7); experiment: Evaluation of cooling intensity (TRPM8 activity evaluation), calcium fluorescence in human TRPM8 stable expression cells; type: cell-based; conditions: TRPM8 activation action, Fluo4-AM fluorescence, 0.1 μM to 1000 μM, 32° C.
T1 construct: The full-length human TRPM8 gene was amplified from plasmid RC220615 (manufactured by Origene) using a PCR method; host or cells: Flp-In T-REx 293 cells ('Flp-In293293 cells' [sic]), pcDNA5/FRT/TO, doxycycline-induced
T1 sequence (Q7Z2W7 whole entry): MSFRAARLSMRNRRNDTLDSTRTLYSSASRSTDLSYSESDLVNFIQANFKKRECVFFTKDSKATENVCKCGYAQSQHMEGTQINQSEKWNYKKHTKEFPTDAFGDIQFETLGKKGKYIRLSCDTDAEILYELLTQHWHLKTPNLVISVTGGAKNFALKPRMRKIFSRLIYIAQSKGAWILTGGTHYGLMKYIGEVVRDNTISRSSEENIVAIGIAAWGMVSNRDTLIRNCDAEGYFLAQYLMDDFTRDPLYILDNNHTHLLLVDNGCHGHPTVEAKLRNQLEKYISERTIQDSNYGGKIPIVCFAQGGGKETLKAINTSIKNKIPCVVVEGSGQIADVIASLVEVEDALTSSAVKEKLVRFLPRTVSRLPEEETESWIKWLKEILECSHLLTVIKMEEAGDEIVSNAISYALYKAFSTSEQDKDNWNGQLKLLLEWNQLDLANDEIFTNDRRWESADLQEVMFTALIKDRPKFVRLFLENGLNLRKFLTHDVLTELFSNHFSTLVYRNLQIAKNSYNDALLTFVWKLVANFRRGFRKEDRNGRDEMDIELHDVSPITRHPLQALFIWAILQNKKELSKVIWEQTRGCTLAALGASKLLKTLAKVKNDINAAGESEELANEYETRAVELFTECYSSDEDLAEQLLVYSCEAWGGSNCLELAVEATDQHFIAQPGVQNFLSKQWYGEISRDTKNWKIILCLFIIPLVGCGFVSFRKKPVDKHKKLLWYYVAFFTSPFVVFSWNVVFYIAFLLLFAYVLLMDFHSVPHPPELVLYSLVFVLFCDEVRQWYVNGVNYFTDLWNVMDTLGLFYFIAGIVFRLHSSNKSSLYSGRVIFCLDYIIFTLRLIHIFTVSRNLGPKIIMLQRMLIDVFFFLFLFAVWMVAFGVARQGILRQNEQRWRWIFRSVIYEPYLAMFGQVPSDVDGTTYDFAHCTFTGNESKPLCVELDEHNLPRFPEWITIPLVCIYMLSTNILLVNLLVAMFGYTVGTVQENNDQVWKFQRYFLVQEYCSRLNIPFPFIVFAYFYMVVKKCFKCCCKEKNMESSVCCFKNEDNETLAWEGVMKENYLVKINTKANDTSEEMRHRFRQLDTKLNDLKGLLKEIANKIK
Experimental: The full-length human TRPM8 gene was amplified from plasmid RC220615 (manufactured by Origene) using a PCR method. The obtained PCR product was subcloned into pcDNA5/FRT/TO (manufactured by Thermo Fisher Scientific K.K.), and then it was introduced into Flp-In293293 cells (manufactured by Thermo Fisher Scientific K.K.) by using a Flp-InT-REx system (manufactured by Thermo Fisher Scientific K.K.), so that a human TRPM8 stable expression cell line was prepared.
The cultured human TRPM8 stable expression cells were seeded at a ratio of 50,000 cells/well to a poly-D-lysine-coated 96-well microplate (manufactured by Corning Incorporated), 1 μg/mL of doxycycline (manufactured by Takara Bio Inc.) was added thereto, and then the seeded cells were cultured at 37° C. for one night, so that the expression of the human TRPM8 was induced.
The culture solution was replaced with a buffer solution, and then, a fluorescent calcium indicator (Fluo4-AM: manufactured by Dojindo Laboratories) was added thereto, the cells were incubated at 37° C. for 30 minutes, and they were transferred to a fluorescent microplate reader (FlexStation3: manufactured by Molecular Devices, LLC.). Each of the compounds obtained in Examples and comparative compounds was added in a final concentration range of 0.1 μM to 1000 μM, and the changes in fluorescence having a wavelength of 525 nm when excited at a wavelength of 485 nm were measured at a device temperature of 32° C., and then EC50 values were determined.

oral cavity = experiment: Sensory evaluation of 30 ppm aqueous solutions in the mouth by four flavorists; type: in vivo, human
Experimental: The evaluation was performed by four flavorists. The aqueous solution was taken into the mouth and spat out after the mouth was rinsed, and cooling intensity, cool-feeling persistence, and quality of a cool-feeling in the oral cavity were evaluated.

Row | SMILES | EC50 (human TRPM8) | melting point | further results
1 | C[C@@H]1CCCC(C)(C)[C@H]1C(=O)NCC(O)c1ccccc1 (stereo partly drawn) [(1S, 6R)-10-4, (1S, 6R)-N-(2-hydroxy-2-phenylethyl)-2,2,6-trimethylcyclohexane-1-carboxamide] | 6360 nM | 96 to 99 °C | 
2 | C[C@H]1CCCC(C)(C)[C@@H]1C(=O)Nc1ccc2c(c1)OCO2 [(1R, 6S)-10-33] | 3750 nM |  | 
3 | C[C@H]1CCCC(C)(C)[C@H]1C(=O)NCC(=O)c1ccccc1 [(1S)-10-10, (1S, 6S)-2,2,6-trimethyl-N-(2-oxo-2-phenylethyl) cyclohexane-1-carboxamide] | 2100 nM |  | 
4 | C[C@H]1CCCC(C)(C)C1C(=O)OC[C@@H](O)c1ccccc1 (stereo partly drawn) [(1R, 6S)-10-51] | 1740 nM |  | 
5 | C[C@H]1CCCC(C)(C)[C@@H]1C(=O)NCC(=O)c1ccccc1 [(1R)-10-10, (1R, 6S)-2,2,6-trimethyl-N-(2-oxo-2-phenylethyl) cyclohexane-1-carboxamide] | 1110 nM |  | 
6 | C[C@@H]1CCCC(C)(C)[C@H]1C(=O)NC[C@@H](O)c1ccccc1 [(1S, 6R)-10-6, (1S, 6R)-N-((S)-2-hydroxy-2-phenylethyl)-2,2,6-trimethylcyclohexane-1-carboxamide] | 5980 nM |  | 
7 | C[C@H]1CCCC(C)(C)[C@@H]1C(=O)Nc1ccc(CC#N)cc1 [(1R, 6S)-10-42] | 1770 nM |  | 
8 | CCNC(=O)[C@@H]1C[C@H](C)CCC1C(C)C (stereo partly shown) [WS-3, reference compound] | 1610 nM |  | 
9 | COc1ccc(CCNC(=O)[C@@H]2[C@@H](C)CCCC2(C)C)cc1OC [(1R, 6S)-10-13] | 7720 nM |  | 
10 | C[C@H]1CCCC(C)(C)[C@@H]1C(=O)NC[C@@H](O)c1ccccc1 [(1R, 6S)-10-6, (1R, 6S)-N-((S)-2-hydroxy-2-phenylethyl)-2,2,6-trimethylcyclohexane-1-carboxamide] | 550 nM | 107 to 111 °C | 
11 | COc1ccc(NC(=O)[C@@H]2[C@@H](C)CCCC2(C)C)cc1 [(1R, 6S)-10-28] | 1590 nM |  | 
12 | C[C@H]1CCCC(C)(C)[C@@H]1C(=O)NCCc1ccccc1 [(1R, 6S)-10-1, (1R, 6S)-2,2,6-trimethyl-N-phenethylcyclohexane-1-carboxamide] | 590 nM | 79 to 82 °C | cool-feeling persistence (oral cavity; 30 ppm aqueous solution): ≥ 30 min; cooling intensity (oral cavity; 30 ppm aqueous solution): very strong; cooling intensity compared with N,2,2,6-tetramethylcyclohexanecarboxamide, 1-menthol and WS-3 (oral cavity; 30 ppm aqueous solutions): apparently stronger; cooling intensity compared with WS-5 (oral cavity; 30 ppm aqueous solutions): stronger
13 | C[C@H]1CCCC(C)(C)[C@@H]1C(=O)NCCc1ccc(O)c(O)c1 [(1R, 6S)-10-12] | 2550 nM | 75 to 77 °C | 
14 | C[C@H]1CCCC(C)(C)[C@@H]1C(=O)NCc1ccsc1 [(1R, 6S)-10-23] | 3480 nM |  | 
15 | COC(=O)c1ccc(NC(=O)[C@@H]2[C@@H](C)CCCC2(C)C)cc1 [(1R, 6S)-10-38] | 5760 nM |  | 
16 | C[C@H]1CCCC(C)(C)[C@@H]1C(=O)Nc1ccc(CCO)cc1 [(1R, 6S)-10-36] | 1670 nM | 85 to 87 °C | 
17 | CCNC(=O)C(C)(C(C)C)C(C)C [WS-23, reference compound] | 23100 nM |  | 
18 | C[C@H]1CCCC(C)(C)[C@@H]1C(=O)Nc1ccncc1 [(1R, 6S)-10-43] | 15000 nM |  | 
19 | CNC(=O)[C@@H]1[C@@H](C)CCCC1(C)C (stereo in doubt) [N,2,2,6-tetramethylcyclohexanecarboxamide, reference compound] | 110000 nM |  | 
20 | CC(=O)c1ccc(NC(=O)[C@@H]2[C@@H](C)CCCC2(C)C)cc1 [(1R, 6S)-10-35] | 1190 nM |  | 
21 | C[C@@H]1CCCC(C)(C)[C@H]1C(=O)NCCc1ccc(O)cc1 [(1S, 6R)-10-8, (1S, 6R)-N-(4-hydroxyphenethyl)-2,2,6-trimethylcyclohexane-1-carboxamide] | 5900 nM | 180 to 182 °C | 
22 | CSc1ccc(NC(=O)[C@@H]2[C@@H](C)CCCC2(C)C)cc1 [(1R, 6S)-10-41] | 1060 nM |  | 
23 | COc1ccc(CNC(=O)C2[C@@H](C)CCCC2(C)C)cc1 (stereo partly drawn) [(1S, 6R)-10-28] | 2420 nM |  | 
24 | C[C@H]1CCCC(C)(C)[C@@H]1C(=O)NCC(O)c1ccccc1 (stereo partly drawn) [(1R, 6S)-10-4, (1R, 6S)-N-(2-hydroxy-2-phenylethyl)-2,2,6-trimethylcyclohexane-1-carboxamide] | 600 nM | 95 to 98 °C | 
25 | C[C@H]1CCCC(C)(C)[C@@H]1C(=O)NCc1cccs1 [(1R, 6S)-10-22] | 1970 nM |  | 
26 | C[C@@H]1CCCC(C)(C)[C@H]1C(=O)NC[C@H](O)c1ccccc1 [(1S, 6R)-10-5, (1S, 6R)-N-((R)-2-hydroxy-2-phenylethyl)-2,2,6-trimethylcyclohexane-1-carboxamide] | 7680 nM | 105 to 110 °C | 
27 | C[C@H]1CCCC(C)(C)[C@@H]1C(=O)Nc1ccc(O)cc1 [(1R, 6S)-10-27] | 6140 nM |  | 
28 | C[C@H]1CCCC(C)(C)[C@@H]1C(=O)NCCc1ccc(O)cc1 [(1R, 6S)-10-8, (1R, 6S)-N-(4-hydroxyphenethyl)-2,2,6-trimethylcyclohexane-1-carboxamide] | 1190 nM | 178 to 180 °C | 
29 | C[C@H]1CCCC(C)(C)[C@@H]1C(=O)NC[C@H](O)c1ccccc1 [(1R, 6S)-10-5, (1R, 6S)-N-((R)-2-hydroxy-2-phenylethyl)-2,2,6-trimethylcyclohexane-1-carboxamide] | 3960 nM |  | 
30 | CCOC(=O)CNC(=O)[C@@H]1C[C@H](C)CCC1C(C)C (stereo partly shown) [WS-5, reference compound] | 730 nM |  | 
